In publication PMC6028563, “Probing Substituents in the 1- and 3-Position: Tetrahydropyrazino-Annelated Water-Soluble Xanthine Derivatives as Multi-Target Drugs With Potent Adenosine Receptor Antagonistic Activity” (Frontiers in Chemistry, 2018):
Converted amounts (≈) assume the structure as drawn. Where two headings read alike, the source gives them in different places.

Assays:
[1] = Thermodynamic solubility measurements; format: physicochemical; settings: thermodynamic from solid, thermodynamic solubility
Description: This is expected to facilitate dissolution in the stomach. Depending on the substitution pattern they may also be well soluble at higher pH values (Brunschweiger et al., [2014]). In the present study we measured thermodynamic solubility of only very few compounds exemplarily (14a-e, 14g, 15f,g) and confirmed their high solubility at pH 1 (see Table S1 in Supplementary Material). Most of these compounds were still soluble at pH 7.4. The best soluble derivative was the 3-ethyl-1-methyl-8-m-fluorobenzyl derivative 14g with solubilities of >1.5 g/L (4.2 mM) at pH 1, 50 mg/L (0.14 mM) at pH 4, and 40 mg/L ([…]) at pH 7.4.
Table S1. Solubility of selected compounds at three different pH values (in mg/mL).a
Compound pH 1 pH 4 pH 7.4
adetermined by thermodynamic solubility measurements.

human A2A AR = target: T1, human A2A AR (Homo sapiens, UniProt P29274); assay: Radioligand binding assay at human A2A AR vs. [^3H]MSX-2; settings: CHO cell membranes, n = 3, read-out: Ki ± SEM, A2A vs. [^3H]MSX-2
T1 construct: expressed in transfected cells; host or cells: CHO cells
In short: (§1)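 Affinity values derive from radioligand displacement on membrane preparations: native rat tissue (cortex for A1, striatum for A2A) or CHO cells recombinantly expressing human A1, A2A, A2B or A3 ARs.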

rat A2A AR = target: T2, rat A2A AR (Rattus norvegicus, UniProt P30543); assay: Radioligand binding assay at rat A2A AR (rat brain striatum) vs. [^3H]MSX-2; settings: rat (r); for Ki: rat brain striatum, n = 3, read-out: Ki ± SEM, A2A vs. [^3H]MSX-2
T2 construct: A2A ARs of rat brain striatal membrane preparations; from tissue; host or cells: rat brain striatum membranes
In short: as §1

recombinant human MAO-A = target: T3, recombinant human MAO-A (Homo sapiens, UniProt P21397); assay: Monoamine oxidase assay (Amplex Red), MAO-A; format: biochemical; settings: for inhibition at 10 µM: at 10,000 nM, read-out: % inhibition at indicated concentration, Human MAO-A; for IC50: n = 3, read-out: IC50 ± SEM, Human MAO-A
T3 construct: purchased Sigma-Aldrich M7316; host or cells: baculovirus-infected insect cells
T3 sequence (P21397 1-527): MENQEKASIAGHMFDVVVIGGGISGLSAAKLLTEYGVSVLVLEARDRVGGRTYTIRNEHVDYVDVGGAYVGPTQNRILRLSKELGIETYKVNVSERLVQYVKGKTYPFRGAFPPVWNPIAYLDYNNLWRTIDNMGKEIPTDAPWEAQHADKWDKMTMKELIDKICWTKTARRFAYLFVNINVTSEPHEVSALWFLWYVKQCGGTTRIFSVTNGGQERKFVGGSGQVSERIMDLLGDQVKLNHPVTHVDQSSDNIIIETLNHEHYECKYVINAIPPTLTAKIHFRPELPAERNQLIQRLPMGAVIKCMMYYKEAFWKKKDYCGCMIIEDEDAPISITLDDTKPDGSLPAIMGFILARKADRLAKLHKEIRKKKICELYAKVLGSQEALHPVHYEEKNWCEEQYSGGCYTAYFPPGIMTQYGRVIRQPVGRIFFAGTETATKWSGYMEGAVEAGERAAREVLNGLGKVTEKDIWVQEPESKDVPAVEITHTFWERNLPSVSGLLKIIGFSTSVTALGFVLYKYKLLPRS
In short: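 Inhibition was measured with an Amplex Red monoamine oxidase assay, using human MAO-A and MAO-B produced recombinantly in baculovirus-infected insect cells. For rat MAO-B, liver mitochondria-enriched fractions from male Sprague Dawley rats served as enzyme source.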

[2] = aqueous buffer, pH 4, read-out: Solubility, pH 4
[3] = aqueous buffer, pH 7.4, read-out: Solubility, pH 7.4
[4] = simulated gastric fluid, pH 1, read-out: Solubility, pH 1

T1 sequence (P29274 whole entry): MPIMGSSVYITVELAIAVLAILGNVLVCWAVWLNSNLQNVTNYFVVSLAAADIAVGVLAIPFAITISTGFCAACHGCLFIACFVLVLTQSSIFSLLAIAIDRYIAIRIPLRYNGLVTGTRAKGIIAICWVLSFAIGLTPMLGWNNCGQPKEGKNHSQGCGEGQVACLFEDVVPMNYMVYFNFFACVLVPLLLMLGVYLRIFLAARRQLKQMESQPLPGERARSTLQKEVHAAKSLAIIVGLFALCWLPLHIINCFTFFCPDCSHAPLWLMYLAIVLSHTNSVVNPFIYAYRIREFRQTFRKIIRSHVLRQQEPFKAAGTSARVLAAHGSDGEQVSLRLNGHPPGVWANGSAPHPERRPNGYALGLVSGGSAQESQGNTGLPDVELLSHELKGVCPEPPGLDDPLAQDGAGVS
T2 sequence (P30543 whole entry): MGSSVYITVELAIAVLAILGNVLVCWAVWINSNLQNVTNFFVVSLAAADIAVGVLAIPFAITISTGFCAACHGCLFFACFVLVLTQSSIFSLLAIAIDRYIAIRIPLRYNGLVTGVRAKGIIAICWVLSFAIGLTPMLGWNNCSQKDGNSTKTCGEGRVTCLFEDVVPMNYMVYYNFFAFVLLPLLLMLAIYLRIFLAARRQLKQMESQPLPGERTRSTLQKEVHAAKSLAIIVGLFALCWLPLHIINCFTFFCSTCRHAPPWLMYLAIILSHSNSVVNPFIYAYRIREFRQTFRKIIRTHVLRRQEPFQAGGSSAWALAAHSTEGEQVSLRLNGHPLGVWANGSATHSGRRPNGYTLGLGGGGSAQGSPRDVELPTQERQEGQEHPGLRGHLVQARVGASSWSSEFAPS

Row | solubility [1, 2] | solubility [1, 3] | solubility [1, 4] | Ki (human A2A AR) | Ki (rat A2A AR) | inhibition at 10 µM (recombinant human MAO-A) | IC50 (recombinant human MAO-A) | % inhibition of radioligand binding at indicated concentration, A2A vs. [^3H]MSX-2 (rat A2A AR; at 1,000 nM) | Compound
1 | 0.9 µg/mL (≈ 2.15 µM) | 0.8 µg/mL (≈ 1.91 µM) | 200 µg/mL (≈ 478 µM) | 497 ± 62 nM | 408 ± 90 nM | – | – | – | CCn1c(=O)c2c(nc3n2CCN(Cc2ccccc2Br)C3)n(C)c1=O [Compound 14a, 8-(2-bromobenzyl)-3-ethyl-1-methyl-6,7,8,9-tetrahydropyrazino[2,1-f]purine-2,4(1H,3H)-dione]
2 | 2 µg/mL (≈ 4.91 µM) | 2 µg/mL (≈ 4.91 µM) | 400 µg/mL (≈ 982 µM) | 1780 nM | 708 ± 25 nM | 12% | > 10000 nM | – | CCn1c(=O)c2c(nc3n2CCN(Cc2cccc(C(F)(F)F)c2)C3)n(C)c1=O [Compound 14e, 3-ethyl-1-methyl-8-(3-(trifluoromethyl)benzyl)-6,7,8,9-tetrahydropyrazino[2,1-f]purine-2,4(1H,3H)-dione]
3 | 2 µg/mL (≈ 4.75 µM) | 2 µg/mL (≈ 4.75 µM) | 600 µg/mL (≈ 1420 µM) | 277 ± 59 nM | 1030 nM | – | – | – | CCn1c(=O)c2c(nc3n2CCN(Cc2cccc(C(F)(F)F)c2)C3)n(CC)c1=O [Compound 15g, 1,3-diethyl-8-(3-(trifluoromethyl)benzyl)-6,7,8,9-tetrahydropyrazino[2,1-f]purine-2,4(1H,3H)-dione]
4 | 1 µg/mL (≈ 2.45 µM) | < 0.5 µg/mL | 200 µg/mL (≈ 491 µM) | – | > 1000 nM | 5% | > 10000 nM | 20% | CCn1c(=O)c2c(nc3n2CCN(Cc2ccccc2C(F)(F)F)C3)n(C)c1=O [Compound 14d, 3-ethyl-1-methyl-8-(2-(trifluoromethyl)benzyl)-6,7,8,9-tetrahydropyrazino[2,1-f]purine-2,4(1H,3H)-dione]
